Laboratory results from the NIST ThermoML archive (doi:10.1016/j.tca.2015.03.003).

Assay: molar heat capacity at constant pressure; xn = mol fraction of the nth substance listed
Details: 100 kPa, Small sample (50 mg) DSC

[Cl-].[K+] [potassium chloride] + [Cl-].[Na+]
Details | molar heat capacity at constant pressure [J/K/mol]
298.15 K, Crystal of unknown type, x1 = 0.1 | 48.78
298.15 K, Crystal of unknown type, x1 = 0.2 | 51.33
298.15 K, Crystal of unknown type, x1 = 0.3 | 49.46
298.15 K, Crystal of unknown type, x1 = 0.4 | 50.77
298.15 K, Crystal of unknown type, x1 = 0.5 | 51.13
298.15 K, Crystal of unknown type, x1 = 0.6 | 48.93
298.15 K, Crystal of unknown type, x1 = 0.7 | 50.73
298.15 K, Crystal of unknown type, x1 = 0.75 | 50.05
298.15 K, Crystal of unknown type, x1 = 0.8 | 50.46
300 K, Crystal of unknown type, x1 = 0.1 | 48.81
300 K, Crystal of unknown type, x1 = 0.2 | 51.36
300 K, Crystal of unknown type, x1 = 0.3 | 49.49
300 K, Crystal of unknown type, x1 = 0.4 | 50.8
300 K, Crystal of unknown type, x1 = 0.5 | 51.16
300 K, Crystal of unknown type, x1 = 0.6 | 48.96
300 K, Crystal of unknown type, x1 = 0.7 | 50.76
300 K, Crystal of unknown type, x1 = 0.75 | 50.07
300 K, Crystal of unknown type, x1 = 0.8 | 50.47
350 K, Crystal of unknown type, x1 = 0.1 | 49.61
350 K, Crystal of unknown type, x1 = 0.2 | 52.11
350 K, Crystal of unknown type, x1 = 0.3 | 50.24
350 K, Crystal of unknown type, x1 = 0.4 | 51.4
350 K, Crystal of unknown type, x1 = 0.5 | 51.77
350 K, Crystal of unknown type, x1 = 0.6 | 49.81
350 K, Crystal of unknown type, x1 = 0.7 | 51.51
350 K, Crystal of unknown type, x1 = 0.75 | 50.42
350 K, Crystal of unknown type, x1 = 0.8 | 50.87
400 K, Crystal of unknown type, x1 = 0.1 | 50.41
400 K, Crystal of unknown type, x1 = 0.2 | 52.86
400 K, Crystal of unknown type, x1 = 0.3 | 50.99
400 K, Crystal of unknown type, x1 = 0.4 | 52
400 K, Crystal of unknown type, x1 = 0.5 | 52.39
400 K, Crystal of unknown type, x1 = 0.6 | 50.66
400 K, Crystal of unknown type, x1 = 0.7 | 52.26
400 K, Crystal of unknown type, x1 = 0.75 | 50.77
400 K, Crystal of unknown type, x1 = 0.8 | 51.27
450 K, Crystal of unknown type, x1 = 0.1 | 51.21
450 K, Crystal of unknown type, x1 = 0.2 | 53.61
450 K, Crystal of unknown type, x1 = 0.3 | 51.74
450 K, Crystal of unknown type, x1 = 0.4 | 52.6
450 K, Crystal of unknown type, x1 = 0.5 | 53.01
450 K, Crystal of unknown type, x1 = 0.6 | 51.51
450 K, Crystal of unknown type, x1 = 0.7 | 53.01
450 K, Crystal of unknown type, x1 = 0.75 | 51.12
450 K, Crystal of unknown type, x1 = 0.8 | 51.67
470 K, Crystal of unknown type, x1 = 0.1 | 51.53
470 K, Crystal of unknown type, x1 = 0.2 | 53.91
470 K, Crystal of unknown type, x1 = 0.3 | 52.04
470 K, Crystal of unknown type, x1 = 0.4 | 52.84
470 K, Crystal of unknown type, x1 = 0.5 | 53.25
470 K, Crystal of unknown type, x1 = 0.6 | 51.85
470 K, Crystal of unknown type, x1 = 0.7 | 53.31
470 K, Crystal of unknown type, x1 = 0.75 | 51.26
470 K, Crystal of unknown type, x1 = 0.8 | 51.83
500 K, Crystal of unknown type, x1 = 0.1 | 52.01
500 K, Crystal of unknown type, x1 = 0.2 | 54.36
500 K, Crystal of unknown type, x1 = 0.3 | 52.49
500 K, Crystal of unknown type, x1 = 0.4 | 53.2
500 K, Crystal of unknown type, x1 = 0.5 | 53.63
500 K, Crystal of unknown type, x1 = 0.6 | 52.36
500 K, Crystal of unknown type, x1 = 0.7 | 53.76
500 K, Crystal of unknown type, x1 = 0.75 | 51.47
500 K, Crystal of unknown type, x1 = 0.8 | 52.07
550 K, Crystal of unknown type, x1 = 0.1 | 52.81
550 K, Crystal of unknown type, x1 = 0.2 | 55.11
550 K, Crystal of unknown type, x1 = 0.3 | 53.24
550 K, Crystal of unknown type, x1 = 0.4 | 53.8
550 K, Crystal of unknown type, x1 = 0.5 | 54.24
550 K, Crystal of unknown type, x1 = 0.6 | 53.21
550 K, Crystal of unknown type, x1 = 0.7 | 54.51
550 K, Crystal of unknown type, x1 = 0.75 | 51.82
550 K, Crystal of unknown type, x1 = 0.8 | 52.47
600 K, Crystal of unknown type, x1 = 0.1 | 53.61
600 K, Crystal of unknown type, x1 = 0.2 | 55.86
600 K, Crystal of unknown type, x1 = 0.3 | 53.99
600 K, Crystal of unknown type, x1 = 0.4 | 54.4
600 K, Crystal of unknown type, x1 = 0.5 | 54.86
600 K, Crystal of unknown type, x1 = 0.6 | 54.06
600 K, Crystal of unknown type, x1 = 0.7 | 55.26
600 K, Crystal of unknown type, x1 = 0.75 | 52.17
600 K, Crystal of unknown type, x1 = 0.8 | 52.87
635 K, Crystal of unknown type, x1 = 0.8 | 53.15
635 K, Crystal, x1 = 0.8 | 52.52
650 K, Crystal of unknown type, x1 = 0.1 | 54.41
650 K, Crystal of unknown type, x1 = 0.2 | 56.61
650 K, Crystal of unknown type, x1 = 0.3 | 54.74
650 K, Crystal of unknown type, x1 = 0.4 | 55
650 K, Crystal of unknown type, x1 = 0.5 | 55.48
650 K, Crystal of unknown type, x1 = 0.6 | 54.91
650 K, Crystal of unknown type, x1 = 0.7 | 56.01
650 K, Crystal of unknown type, x1 = 0.75 | 52.52
650 K, Crystal, x1 = 0.8 | 52.97
683 K, Crystal of unknown type, x1 = 0.75 | 52.75
683 K, Crystal, x1 = 0.75 | 55.25
687 K, Crystal of unknown type, x1 = 0.7 | 56.56
687 K, Crystal, x1 = 0.7 | 53.53
700 K, Crystal of unknown type, x1 = 0.1 | 55.21
700 K, Crystal of unknown type, x1 = 0.2 | 57.36
700 K, Crystal of unknown type, x1 = 0.3 | 55.49
700 K, Crystal of unknown type, x1 = 0.4 | 55.6
700 K, Crystal of unknown type, x1 = 0.5 | 56.1
700 K, Crystal of unknown type, x1 = 0.6 | 55.76
700 K, Crystal, x1 = 0.7 | 54.17
700 K, Crystal, x1 = 0.75 | 56.4
700 K, Crystal, x1 = 0.8 | 54.47
733 K, Crystal of unknown type, x1 = 0.6 | 56.32
733 K, Crystal, x1 = 0.6 | 56.77
739 K, Crystal of unknown type, x1 = 0.1 | 55.83
739 K, Crystal, x1 = 0.1 | 55.59
750 K, Crystal of unknown type, x1 = 0.2 | 58.11
750 K, Crystal of unknown type, x1 = 0.3 | 56.24
750 K, Crystal of unknown type, x1 = 0.4 | 56.2
750 K, Crystal of unknown type, x1 = 0.5 | 56.71
750 K, Crystal, x1 = 0.1 | 55.9
750 K, Crystal, x1 = 0.6 | 57.39
750 K, Crystal, x1 = 0.7 | 56.62
750 K, Crystal, x1 = 0.75 | 59.8
750 K, Crystal, x1 = 0.8 | 55.97
753 K, Crystal of unknown type, x1 = 0.2 | 58.15
753 K, Crystal, x1 = 0.2 | 59.47
757 K, Crystal of unknown type, x1 = 0.5 | 56.8
757 K, Crystal, x1 = 0.5 | 57.77
769 K, Crystal of unknown type, x1 = 0.4 | 56.42
769 K, Crystal, x1 = 0.4 | 56.84
771 K, Crystal of unknown type, x1 = 0.3 | 56.56
771 K, Crystal, x1 = 0.3 | 57.44
800 K, Crystal, x1 = 0.1 | 57.3
800 K, Crystal, x1 = 0.2 | 61.35
800 K, Crystal, x1 = 0.3 | 58.49
800 K, Crystal, x1 = 0.4 | 58.24
800 K, Crystal, x1 = 0.5 | 59.38
800 K, Crystal, x1 = 0.6 | 59.19
800 K, Crystal, x1 = 0.7 | 59.07
800 K, Crystal, x1 = 0.75 | 63.2
800 K, Crystal, x1 = 0.8 | 57.47
850 K, Crystal, x1 = 0.1 | 58.7
850 K, Crystal, x1 = 0.2 | 63.35
850 K, Crystal, x1 = 0.3 | 60.29
850 K, Crystal, x1 = 0.4 | 60.49
850 K, Crystal, x1 = 0.5 | 61.26
850 K, Crystal, x1 = 0.6 | 60.99
850 K, Crystal, x1 = 0.7 | 61.52
850 K, Crystal, x1 = 0.75 | 66.6
850 K, Crystal, x1 = 0.8 | 58.97
900 K, Crystal, x1 = 0.1 | 60.1
900 K, Crystal, x1 = 0.2 | 65.35
900 K, Crystal, x1 = 0.3 | 62.09
900 K, Crystal, x1 = 0.4 | 62.74
900 K, Crystal, x1 = 0.5 | 63.13
900 K, Crystal, x1 = 0.6 | 62.79
900 K, Crystal, x1 = 0.7 | 63.97
900 K, Crystal, x1 = 0.75 | 70
900 K, Crystal, x1 = 0.8 | 60.47
930 K, Crystal, x1 = 0.5 | 64.25
930 K, Liquid, x1 = 0.5 | 81.03
950 K, Liquid, x1 = 0.5 | 82.5
1000 K, Liquid, x1 = 0.5 | 86.19
1050 K, Liquid, x1 = 0.5 | 89.88
1100 K, Liquid, x1 = 0.5 | 93.56
